Data reported in patent EP1337551B1, “SUBSTANCE P ANALOGS FOR THE TREATMENT OF CANCER” (DABUR PHARMA LTD., priority 2000, dated 2002).
Residues, ends and D or L forms follow the SMILES beside them.

Tests used:
Su.86.86 (pancreas) = assay: In vitro cytotoxic activity, MTT assay, 72 hours; format: cell-based, human
Protocol: (§1) The cytotoxic activity of synthesized peptides was tested on six human tumor cell lines namely MCF7 (breast), U373 (glioblastoma), PTC, (colon), L132 (lung), Su.86.86 (pancreas), and KB (oral). The tumor cells were collected at exponential growth phase and resuspended in medium (1.5 x 10^6 cells/ml in RPMI 1640 containing 10% FBS). 150µL of medium was added to the wells of a 96-well tissue culture plate (Nunc, Denmark) followed by 30µl of cell suspension. The plate was left in an incubator (37°C, 5% CO2) overnight. 20µl of the peptide (100 pM to 10 µM concentration) was added to marked wells of the 96-well plate. Each concentration was plated in triplicate. 20µl of medium alone was added to control wells while wells without cells served as blanks. A total volume of 200µL was ensured in each well and plate was left in incubator (37°C, 5% CO2). After 72 hours of incubation an MTT assay was performed and percentage cytotoxicity was calculated with respect to control cells.

U373 (glioblastoma) = assay: In vitro cytotoxic activity, MTT assay, 72 hours; format: cell-based, human
Protocol: as §1

L132 (lung) = assay: In vitro cytotoxic activity, MTT assay, 72 hours; format: cell-based, human
Protocol: as §1

PTC, (colon) = assay: In vitro cytotoxic activity, MTT assay, 72 hours; format: cell-based, human
Protocol: as §1

MCF7 (breast) = assay: In vitro cytotoxic activity, MTT assay, 72 hours; format: cell-based, human
Protocol: as §1

KB (Oral squamous) = assay: In vitro cytotoxic activity of lipo conjugates, MTT assay, 48 hours; format: cell-based
Protocol: (§2) The cytotoxic effect of lipo-conjugates of substance P analogs SEQ ID NO: 6, SEQ ID NO: 7 and SEQ ID NO: 8, was studied by MTT assay which is based on the principle of uptake of MTT [3-[4,5-dimethylthiazol-2-yl]-2,5-diphenyl tetrazolium bromide], a tetrazolium salt by the metabolically active cells where it is metabolized by active mitochondria in to a blue colored formazan product which can be read spectrophotometrically. Briefly, tumor cells - KB (Oral squamous), U87MG (Blioblastoma), HBL100 (Breast), HeP2 (Larngeal), ECV304 (Endothelial), PA-1 (Ovary) and L132 (Lunng) were incubated with the peptide analogs for 48 hours at 37°C in a 96-well culture plate, followed by the addition of 100 µg MTT and further incubation of 1 hour. The formazan crystals formed inside the cells were dissolved with a detergent comprising of 10% Sodium dodecyl sulfate and 0.01 N HCl and optical density read on a multiscan ELISA reader. The optical density was directly proportional to the number of proliferating and metabolically active cells. SEQ ID NO: 6

ECV304 (Endothelial) = assay: as above; format: cell-based
Protocol: as §2

PA-1 (Ovary) = assay: as above; format: cell-based
Protocol: as §2

L132 (Lunng) = assay: as above; format: cell-based
Protocol: as §2

HeP2 (Larngeal) = assay: as above; format: cell-based
Protocol: as §2

U87MG (Blioblastoma) = assay: as above; format: cell-based
Protocol: as §2

HBL100 (Breast) = assay: as above; format: cell-based
Protocol: as §2

SMILES: CC(C)C[C@H](NC(=O)[C@@H](Cc1c[nH]c2ccccc12)NC(=O)[C@H](Cc1ccccc1)NC(=O)[C@@H](Cc1c[nH]c2ccccc12)NC(=O)[C@H](CCC(N)=O)NC(=O)[C@@H](Cc1ccccc1)NC(=O)[C@@H]1CCCN1C(=O)[C@H](CCCCN)NC(=O)[C@@H]1CCCN1C(=O)[C@H](N)CCCNC(=N)N)C(=O)NC1(C(N)=O)CCCC1 [SEQ ID NO: 5, D-Arg-Pro-Lys-Pro-D-Phe-Gln-D-Trp-Phe-D-Trp-Leu-Ac5c-NH2] (HELM PEPTIDE1{[dR].P.K.P.[dF].Q.[dW].F.[dW].L.[O=C(C1(N[*:1])CCCC1)[*:2]].[am]}$$$$V2.0)
- Percentage cytotoxicity at different concentrations (Su.86.86 (pancreas); Su8686, 100pM): Nil
- Percentage cytotoxicity at different concentrations (Su.86.86 (pancreas); Su8686, 1nM): 3 ± 0.3%
- Percentage cytotoxicity at different concentrations (Su.86.86 (pancreas); Su8686, 10nM): 12 ± 2.8%
- Percentage cytotoxicity at different concentrations (Su.86.86 (pancreas); Su8686, 100nM): 9 ± 3.8%
- Percentage cytotoxicity at different concentrations (Su.86.86 (pancreas); Su8686, 1µM): 22 ± 3.3%
- Percentage cytotoxicity at different concentrations (Su.86.86 (pancreas); Su8686, 10µM): 25 ± 4.3%
- Percentage cytotoxicity at different concentrations (U373 (glioblastoma); 100pM): 3.7± 0.5%
- Percentage cytotoxicity at different concentrations (U373 (glioblastoma); 1nM): 3.1 ± 0.5%
- Percentage cytotoxicity at different concentrations (U373 (glioblastoma); 10nM): 5.0 ± 0.7%
- Percentage cytotoxicity at different concentrations (U373 (glioblastoma); 100nM): 4.5 ± 0.5%
- Percentage cytotoxicity at different concentrations (U373 (glioblastoma); 1µM): 17.06 ± 1.9%
- Percentage cytotoxicity at different concentrations (U373 (glioblastoma); 10µM): 37.2 ± 5.3%
- Percentage cytotoxicity at different concentrations (L132 (lung); 100pM): 18±3.4%
- Percentage cytotoxicity at different concentrations (L132 (lung); 1nM): 15 ± 5.8%
- Percentage cytotoxicity at different concentrations (L132 (lung); 10nM): 19 ± 3.3%
- Percentage cytotoxicity at different concentrations (L132 (lung); 100nM): 21 ± 1.2%
- Percentage cytotoxicity at different concentrations (L132 (lung); 1µM): 20 ± 2.3%
- Percentage cytotoxicity at different concentrations (L132 (lung); 10µM): 23 ± 2.3%
- Percentage cytotoxicity at different concentrations (PTC, (colon); 100pM): Nil
- Percentage cytotoxicity at different concentrations (PTC, (colon); 1nM): 3.1 ± 0.5%
- Percentage cytotoxicity at different concentrations (PTC, (colon); 10nM): 3.1 ± 1.9%
- Percentage cytotoxicity at different concentrations (PTC, (colon); 100nM): 6.7 ± 1.3%
- Percentage cytotoxicity at different concentrations (PTC, (colon); 1µM): 25.5 ± 4.8%
- Percentage cytotoxicity at different concentrations (PTC, (colon); 10µM): 35.5 ± 4.8%
- Percentage cytotoxicity at different concentrations (MCF7 (breast); MCF-7, 100pM): Nil
- Percentage cytotoxicity at different concentrations (MCF7 (breast); MCF-7, 1nM): 2.4 ± 1.2%
- Percentage cytotoxicity at different concentrations (MCF7 (breast); MCF-7, 10nM): 7.5 ± 1.5%
- Percentage cytotoxicity at different concentrations (MCF7 (breast); MCF-7, 100nM): 8.6 ± 1.6%
- Percentage cytotoxicity at different concentrations (MCF7 (breast); MCF-7, 1µM): 12.4 ± 2.6%
- Percentage cytotoxicity at different concentrations (MCF7 (breast); MCF-7, 10µM): 18.4 ± 6.4%

SMILES: CC(=O)N[C@H](CCCNC(=N)N)C(=O)N1CCC[C@H]1C(=O)N[C@@H](CCCCN)C(=O)N1CCC[C@H]1C(=O)N[C@H](Cc1ccccc1)C(=O)N[C@@H](CCC(N)=O)C(=O)N[C@H](Cc1c[nH]c2ccccc12)C(=O)N[C@@H](Cc1ccccc1)C(=O)N[C@H](Cc1c[nH]c2ccccc12)C(=O)N[C@@H](CC(C)C)C(=O)NC1(C(N)=O)CCCC1 [SEQ ID NO: 6, Acetyl-D-Arg-Pro-Lys-Pro-D-Phe-Gln-D-Trp-Phe-D-Trp-Leu-Ac5c-NH2] (HELM PEPTIDE1{[ac].[dR].P.K.P.[dF].Q.[dW].F.[dW].L.[O=C(C1(N[*:1])CCCC1)[*:2]].[am]}$$$$V2.0)
- Percentage cytotoxicity at different concentrations (KB (Oral squamous); 1nM): 28.0 ± 2.3%
- Percentage cytotoxicity at different concentrations (KB (Oral squamous); 10nM): 29.0 ± 1.3%
- Percentage cytotoxicity at different concentrations (KB (Oral squamous); 100nM): 18.0 ± 2.6%
- Percentage cytotoxicity at different concentrations (KB (Oral squamous); 1µM): 2.0 ± 1.3%
- Percentage cytotoxicity at different concentrations (ECV304 (Endothelial); 1nM): 9.0 ± 3.7%
- Percentage cytotoxicity at different concentrations (ECV304 (Endothelial); 10nM): 13.8 ± 3.3%
- Percentage cytotoxicity at different concentrations (ECV304 (Endothelial); 100nM): 15.9 ± 2.3%
- Percentage cytotoxicity at different concentrations (ECV304 (Endothelial); 1µM): 12.9 ± 2.2%
- Percentage cytotoxicity at different concentrations (PA-1 (Ovary); 1nM): 8.0 ± 24%
- Percentage cytotoxicity at different concentrations (PA-1 (Ovary); 10nM): 22.0 ± 3.4%
- Percentage cytotoxicity at different concentrations (PA-1 (Ovary); 100nM): 25.4 ± 2.6%
- Percentage cytotoxicity at different concentrations (PA-1 (Ovary); 1µM): 13.9 ± 3.3%
- Percentage cytotoxicity at different concentrations (L132 (Lunng); 1nM): 14.9 ± 2.9%
- Percentage cytotoxicity at different concentrations (L132 (Lunng); 10nM): 24.7 ± 3.2%
- Percentage cytotoxicity at different concentrations (L132 (Lunng); 100nM): 19.5 ± 4.6%
- Percentage cytotoxicity at different concentrations (L132 (Lunng); 1µM): 19.7 ± 2.5%
- Percentage cytotoxicity at different concentrations (HeP2 (Larngeal); 1nM): 10.0 ± 3.2%
- Percentage cytotoxicity at different concentrations (HeP2 (Larngeal); 10nM): 14.8 ± 4.4%
- Percentage cytotoxicity at different concentrations (HeP2 (Larngeal); 100nM): 24.9 ± 1.5%
- Percentage cytotoxicity at different concentrations (HeP2 (Larngeal); 1µM): 13.8 ± 2.4%
- Percentage cytotoxicity at different concentrations (U87MG (Blioblastoma); 1nM): 26.9 ± 3.5%
- Percentage cytotoxicity at different concentrations (U87MG (Blioblastoma); 10nM): 32.9 ± 2.4%
- Percentage cytotoxicity at different concentrations (U87MG (Blioblastoma); 100nM): 34.7 ± 1.9%
- Percentage cytotoxicity at different concentrations (U87MG (Blioblastoma); 1µM): 31.8 ± 3.2%
- Percentage cytotoxicity at different concentrations (HBL100 (Breast); 1nM): 28.5 ± 4.5%
- Percentage cytotoxicity at different concentrations (HBL100 (Breast); 10nM): 28.4 ± 1.8%
- Percentage cytotoxicity at different concentrations (HBL100 (Breast); 100nM): 31.8 ± 1.5%

SMILES: CCCCCCCC(=O)N[C@H](CCCNC(=N)N)C(=O)N1CCC[C@H]1C(=O)N[C@@H](CCCCN)C(=O)N1CCC[C@H]1C(=O)N[C@H](Cc1ccccc1)C(=O)N[C@@H](CCC(N)=O)C(=O)N[C@H](Cc1c[nH]c2ccccc12)C(=O)N[C@@H](Cc1ccccc1)C(=O)N[C@H](Cc1c[nH]c2ccccc12)C(=O)N[C@@H](CC(C)C)C(=O)NC1(C(N)=O)CCCC1 [SEQ ID NO: 8, Octanoyl-D-Arg-Pro-Lys-Pro-D-Phe-Gln-D-Trp-Phe-D-Trp-Leu-Ac5c-NH2] (HELM PEPTIDE1{[CCCCCCCC(=O)[*:2]].[dR].P.K.P.[dF].Q.[dW].F.[dW].L.[O=C(C1(N[*:1])CCCC1)[*:2]].[am]}$$$$V2.0)
- Percentage cytotoxicity at different concentrations (KB (Oral squamous); 1nM): 28.0 ± 3.5%
- Percentage cytotoxicity at different concentrations (KB (Oral squamous); 10nM): 29.0%
- Percentage cytotoxicity at different concentrations (KB (Oral squamous); 100nM): 23.0 ± 3.2%
- Percentage cytotoxicity at different concentrations (KB (Oral squamous); 1µM): 19.0 ± 4.3%
- Percentage cytotoxicity at different concentrations (ECV304 (Endothelial); 1nM): 16.9 ± 3.5%
- Percentage cytotoxicity at different concentrations (ECV304 (Endothelial); 10nM): 31.9 ± 3.3%
- Percentage cytotoxicity at different concentrations (ECV304 (Endothelial); 100nM): 24.6 ± 2.3%
- Percentage cytotoxicity at different concentrations (ECV304 (Endothelial); 1µM): 17.9 ± 2.4%
- Percentage cytotoxicity at different concentrations (PA-1 (Ovary); 1nM): 22.1 ± 3.4%
- Percentage cytotoxicity at different concentrations (PA-1 (Ovary); 10nM): 26.9 ± 3.4%
- Percentage cytotoxicity at different concentrations (PA-1 (Ovary); 100nM): 39.0 ± 2.6%
- Percentage cytotoxicity at different concentrations (PA-1 (Ovary); 1µM): 34.4 ± 3.4%
- Percentage cytotoxicity at different concentrations (L132 (Lunng); 1nM): 11.9 ± 4.9%
- Percentage cytotoxicity at different concentrations (L132 (Lunng); 10nM): 27.5 ± 3.5%
- Percentage cytotoxicity at different concentrations (L132 (Lunng); 100nM): 16.9 ± 3.6%
- Percentage cytotoxicity at different concentrations (L132 (Lunng); 1µM): 18.6 ± 2.4%
- Percentage cytotoxicity at different concentrations (HeP2 (Larngeal); 1nM): 12.5 ± 3.2%
- Percentage cytotoxicity at different concentrations (HeP2 (Larngeal); 10nM): 15.5 ± 4.4%
- Percentage cytotoxicity at different concentrations (HeP2 (Larngeal); 100nM): 24.9 ± 2.5%
- Percentage cytotoxicity at different concentrations (HeP2 (Larngeal); 1µM): 12.9 ± 3.4%
- Percentage cytotoxicity at different concentrations (U87MG (Blioblastoma); 1nM): 23.9 ± 3.3%
- Percentage cytotoxicity at different concentrations (U87MG (Blioblastoma); 10nM): 33.9 ± 2.2%
- Percentage cytotoxicity at different concentrations (U87MG (Blioblastoma); 100nM): 28.9 ± 1.4%
- Percentage cytotoxicity at different concentrations (U87MG (Blioblastoma); 1µM): 21.8 ± 3.4%
- Percentage cytotoxicity at different concentrations (HBL100 (Breast); 1nM): 9.0 ± 4.5%
- Percentage cytotoxicity at different concentrations (HBL100 (Breast); 10nM): 28.6 ± 3.8%
- Percentage cytotoxicity at different concentrations (HBL100 (Breast); 100nM): 30.6 ± 1.5%
- Percentage cytotoxicity at different concentrations (HBL100 (Breast); 1µM): 25.8 ± 1.4%
